Results: paper PMC12044326 (Clinical Pharmacology in Drug Development, 2025)
Like-named read-outs stand apart in the source and are kept apart here.

Legend:
[1] = parameters: method as in earlier work; conditions: ref 7 of supplement, cited from earlier work
[2] = tested on: CYP1A2; conditions: hepatocytes
Description: respectively; XenoTech) were treated once daily for 3 consecutive days and cultured according
to previously described methods.2-4 Each culture well was treated with supplemented modified Chee's medium (0.2 mL) containing 0.1% v/v d imethylsulfoxide (DM SO ; vehicle control),
μmol/L) or 1 of 3 known human CYP enzyme inducers (omeprazole 50 μmol/L, phenobarbital
Cultures were visualized with a
representative well from each treatment group was photographed with a PAXcam 5 (MIS, Inc.
Villa Park, IL, USA) digital camera to document morphological integrity.
β-mercaptoethanol (1:100), and the cell lysates were stored at −80°C. For each hepatocyte preparation, media from 3 wells per treatment group were aspirated, and 250 μL buf f er RLT was added to each well. The cell lysates were mixed by shaking (10 minutes at 800 rpm) and total RNA was isolated with a MagMAX-96 (Ambion/ Thermo Fisher Scientific) for Microarrays Kit using the RNeasy Mini Kit (Qiagen Inc., Germantown, MD, USA). The analysis of RNA integrity was carried out with the RNA 6000 Nano Assay Kit on an Agilent 2100 Bioanalyzer (Agilent Technologies, Inc., Santa Clara, CA, USA). […]
prepared samples were stored at −20°C prior to analysis by quantitative real-time (qRT)- […]

[3] = physchem; type: physicochemical
Description: […]. […] […]. […] […]

[4] = target: T1, OATP1B3 (Homo sapiens, UniProt Q9NPD5)
T1 sequence (Q9NPD5 1-702): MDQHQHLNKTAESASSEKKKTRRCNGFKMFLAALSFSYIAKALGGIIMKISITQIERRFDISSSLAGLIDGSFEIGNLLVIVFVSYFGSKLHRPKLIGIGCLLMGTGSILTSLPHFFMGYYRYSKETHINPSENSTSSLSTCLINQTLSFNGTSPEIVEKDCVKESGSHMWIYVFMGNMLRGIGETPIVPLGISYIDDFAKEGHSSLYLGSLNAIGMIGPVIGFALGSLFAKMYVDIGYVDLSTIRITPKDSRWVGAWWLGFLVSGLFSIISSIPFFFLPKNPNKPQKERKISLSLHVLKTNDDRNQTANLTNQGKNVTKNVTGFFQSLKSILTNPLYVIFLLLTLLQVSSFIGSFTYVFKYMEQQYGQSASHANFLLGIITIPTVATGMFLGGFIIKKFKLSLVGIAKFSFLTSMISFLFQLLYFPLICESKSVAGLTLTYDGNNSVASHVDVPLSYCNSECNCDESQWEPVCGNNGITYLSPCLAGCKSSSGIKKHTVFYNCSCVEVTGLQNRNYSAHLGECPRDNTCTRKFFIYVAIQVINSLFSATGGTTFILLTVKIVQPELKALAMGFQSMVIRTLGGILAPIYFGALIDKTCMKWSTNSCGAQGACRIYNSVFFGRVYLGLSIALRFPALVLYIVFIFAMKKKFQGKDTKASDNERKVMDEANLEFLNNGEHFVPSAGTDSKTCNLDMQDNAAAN

[5] = tested on: human hepatocytes; conditions: both, 10 μmol/L
[6] = target: T2, UGT2B4 (Homo sapiens, UniProt P06133); parameters: with alamethicin-pretreated HLMs (0.5 mg/mL); tissue Sekisui-XenoTech; host or cells: pooled human liver microsomes (200 donors); conditions: predicted by combining in vitro phenotyping and human ADME data; cited from earlier work
T2 sequence (P06133 24-528): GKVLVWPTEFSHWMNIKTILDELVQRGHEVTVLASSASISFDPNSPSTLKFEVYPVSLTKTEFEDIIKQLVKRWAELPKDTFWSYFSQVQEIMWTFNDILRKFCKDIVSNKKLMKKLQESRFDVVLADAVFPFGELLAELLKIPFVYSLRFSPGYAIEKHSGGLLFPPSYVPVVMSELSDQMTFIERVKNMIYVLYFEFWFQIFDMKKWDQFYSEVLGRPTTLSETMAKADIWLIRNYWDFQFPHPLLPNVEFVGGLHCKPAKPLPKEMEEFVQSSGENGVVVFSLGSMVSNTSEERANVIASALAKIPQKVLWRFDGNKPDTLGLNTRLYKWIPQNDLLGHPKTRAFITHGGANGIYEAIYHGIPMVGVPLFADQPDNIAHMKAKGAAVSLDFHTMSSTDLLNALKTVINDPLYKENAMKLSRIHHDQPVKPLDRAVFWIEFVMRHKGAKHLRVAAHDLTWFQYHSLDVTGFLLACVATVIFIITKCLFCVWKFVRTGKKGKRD

[7] = target: T2, UGT2B4; assay: PBPK elimination inputs (retrograde model, fm, KM sensitivity); conditions: PBPK input
[8] = target: T3, OATP1B1 (Homo sapiens, UniProt Q9Y6L6)
T3 sequence (Q9Y6L6 1-691): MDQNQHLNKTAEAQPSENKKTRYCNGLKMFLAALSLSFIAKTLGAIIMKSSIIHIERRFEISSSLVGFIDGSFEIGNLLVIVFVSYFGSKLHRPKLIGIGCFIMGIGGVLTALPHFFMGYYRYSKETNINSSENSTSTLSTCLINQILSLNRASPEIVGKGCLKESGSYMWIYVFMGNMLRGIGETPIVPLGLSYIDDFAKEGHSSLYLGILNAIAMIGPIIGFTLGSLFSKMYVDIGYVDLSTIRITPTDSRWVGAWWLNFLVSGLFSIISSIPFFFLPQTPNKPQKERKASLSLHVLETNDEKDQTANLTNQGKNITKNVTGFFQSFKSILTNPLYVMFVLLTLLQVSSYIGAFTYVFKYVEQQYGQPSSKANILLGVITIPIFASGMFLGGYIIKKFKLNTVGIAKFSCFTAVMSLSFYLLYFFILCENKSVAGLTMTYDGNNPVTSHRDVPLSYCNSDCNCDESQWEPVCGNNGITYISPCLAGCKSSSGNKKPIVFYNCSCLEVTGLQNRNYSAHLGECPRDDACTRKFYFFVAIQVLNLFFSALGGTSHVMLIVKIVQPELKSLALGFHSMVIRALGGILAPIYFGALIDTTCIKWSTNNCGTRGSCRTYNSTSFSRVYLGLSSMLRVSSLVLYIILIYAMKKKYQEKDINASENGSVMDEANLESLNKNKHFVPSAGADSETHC

[9] = in vitro; conditions: human, Caco-2
Description: Caco-2 cells were obtained from American Type Culture Collection. Prior to the experiments,
the cells were seeded on 55 cm2 bottom culture dishes (Corning). The cells were cultured at
37°C in a humidified CO2 (5%) incubator and routinely passaged about once a week. Caco-2
cultured in the medium at 37°C in a humidified CO2 (5%) incubator for 23 days to prepare cell
The medium was changed 4 days after seeding and then changed every 2 or 3 days
thereafter. Before the experiment, the integrity of the Caco-2 cell monolayer was checked by
measuring the trans-epithelial electrical resistance (TEER) value. The TEER values of cell
In the transport experiments, the medium of top side of the cells (apical side) and basal
side of the cells (basal side) were replaced with the DMSO-HBSS solution, the inhibitor-HBSS
control), or the test solutions (digoxin and mannitol as substrates). The volumes of the replaced
solutions were 300 μL for the apical side and 1 mL for the basal side. The DMSO-HBSS […]
of the solution in each basal side (receiver side) were collected and measured for the
radioactivity using an LSC. […]
collected and measured for the radioactivity using an LSC. […]
side (receiver side) were collected and measured for the radioactivity using an LSC. […]
in each apical side and each basal side (donor side) were collected and measured for the
radioactivity using an LSC.

[10] = 100 mg QD, Day 1, geometric mean
[11] = 100 mg QD, Day 14, geometric mean
[12] = 300 mg QD, Day 1, geometric mean
[13] = 300 mg QD, Day 14, geometric mean
[14] = 400 mg QD, Day 1, geometric mean
[15] = 400 mg QD, Day 14, geometric mean

O=C(c1cccnc1-c1ccncc1)N1CCC(O)(Cc2ccccc2)CC1 [Soticlestat]
AUC0-24 observed [1, 10]: 422 ng·h/mL
Cmax observed [1, 10]: 419 ng/mL
tmax observed ([1]; 100 mg QD, Day 1, median): 25.2 min
AUCtau observed [1, 11]: 443 ng·h/mL
Cmax observed [1, 11]: 469 ng/mL
tmax observed ([1]; 100 mg QD, Day 14, median): 19.8 min
AUC0-24 observed [1, 12]: 1798 ng·h/mL
Cmax observed [1, 12]: 1729 ng/mL
tmax observed ([1]; 300 mg QD, Day 1, median): 25.2 min
AUCtau observed [1, 13]: 2497 ng·h/mL
Cmax observed [1, 13]: 2866 ng/mL
tmax observed ([1]; 300 mg QD, Day 14, median): 19.8 min
AUC0-24 observed [1, 14]: 2283 ng·h/mL
Cmax observed [1, 14]: 2374 ng/mL
AUCtau observed [1, 15]: 2605 ng·h/mL
Cmax observed [1, 15]: 2709 ng/mL
induction of CYP1A2 [2]: nor did soticlestat induce
logP [3]: 1.4
pKa [3]: 3.37
Compound type ([3]; PBPK input): Monoprotic base
inhibition of OATP1B3 [4]: did not demonstrate clinically relevant inhibition
metabolized by glucuronidation [5]: ~66%
oxidation via CYP3A [5]: ~33%
fm by UGT2B4 [6]: 81.2%
fmUGT2B4 [7]: 0.8
substrate for OATP1B1 [8]: not a substrate
Papp [9]: 23.4 ×10⁻⁶ cm/s
